From ChEMBL document CHEMBL1139969, “Novel and potent 3-(2,3-dichlorophenyl)-4-(benzyl)-4H-1,2,4-triazole P2X7 antagonists” (Bioorg Med Chem Lett, 2007) come the findings set out here.

Calls of active or inactive are those of the source. The rule behind the calls is not given here.

Series [1] has as its target T1, P2X purinoceptor 7 (Homo sapiens, UniProt Q99572).
T1 sequence (Q99572 whole entry): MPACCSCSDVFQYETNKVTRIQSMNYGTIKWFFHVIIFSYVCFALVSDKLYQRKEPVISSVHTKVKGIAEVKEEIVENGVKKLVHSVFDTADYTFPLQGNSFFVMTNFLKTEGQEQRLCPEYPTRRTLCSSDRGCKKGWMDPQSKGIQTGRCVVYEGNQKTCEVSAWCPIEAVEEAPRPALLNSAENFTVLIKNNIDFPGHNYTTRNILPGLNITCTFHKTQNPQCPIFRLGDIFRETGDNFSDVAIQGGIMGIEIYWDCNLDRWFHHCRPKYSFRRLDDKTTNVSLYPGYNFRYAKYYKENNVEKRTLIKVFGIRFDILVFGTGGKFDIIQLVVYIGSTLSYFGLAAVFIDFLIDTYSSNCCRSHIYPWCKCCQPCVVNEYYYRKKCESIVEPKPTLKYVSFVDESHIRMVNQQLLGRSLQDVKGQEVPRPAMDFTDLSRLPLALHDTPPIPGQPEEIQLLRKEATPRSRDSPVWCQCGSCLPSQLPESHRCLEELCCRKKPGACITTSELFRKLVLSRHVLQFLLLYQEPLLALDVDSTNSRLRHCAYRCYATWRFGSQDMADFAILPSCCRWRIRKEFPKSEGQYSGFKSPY
Briefly: Antagonist activity at human recombinant P2X7 receptor. It is filed as functional.

Series [2] concerns the target T2, P2X purinoceptor 7 (Rattus norvegicus, UniProt Q64663).
T2 sequence (Q64663 whole entry): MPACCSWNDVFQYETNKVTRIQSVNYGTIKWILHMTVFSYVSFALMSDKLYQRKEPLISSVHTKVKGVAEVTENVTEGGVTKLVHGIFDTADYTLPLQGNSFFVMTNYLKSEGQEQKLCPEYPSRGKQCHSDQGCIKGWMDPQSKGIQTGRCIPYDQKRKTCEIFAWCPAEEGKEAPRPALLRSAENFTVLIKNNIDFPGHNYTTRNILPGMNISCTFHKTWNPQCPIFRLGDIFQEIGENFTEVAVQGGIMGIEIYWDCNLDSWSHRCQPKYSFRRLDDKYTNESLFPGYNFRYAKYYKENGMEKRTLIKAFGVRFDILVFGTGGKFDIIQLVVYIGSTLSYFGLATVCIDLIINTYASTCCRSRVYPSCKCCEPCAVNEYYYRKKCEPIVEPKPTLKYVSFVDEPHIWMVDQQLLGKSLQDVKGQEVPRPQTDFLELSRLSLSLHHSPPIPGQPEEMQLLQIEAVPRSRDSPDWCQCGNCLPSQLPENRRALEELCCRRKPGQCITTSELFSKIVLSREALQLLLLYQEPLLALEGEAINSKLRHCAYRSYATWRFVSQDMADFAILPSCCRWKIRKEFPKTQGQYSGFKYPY
Kind of series: Antagonist activity at rat recombinant P2X7 receptor. Format: functional.

Series [3] relates to THP-1. Kind of series: Inhibition of IL1-beta release from THP1 cells. It is filed as functional, cell-based. The following applies: Homo sapiens.
For series [4], the species on record is Homo sapiens. Kind of series: Activity at human P2X2/3 receptor at 10 uM.
Series [5] is described as follows: Oral bioavailability in rat at 5 umol/kg. Format: ADME, organism-based. The following applies: in vivo.
Series [6] concerns the target T3, P2X purinoceptor 2 (Homo sapiens) (UniProt Q9UBL9).
T3 sequence (whole entry): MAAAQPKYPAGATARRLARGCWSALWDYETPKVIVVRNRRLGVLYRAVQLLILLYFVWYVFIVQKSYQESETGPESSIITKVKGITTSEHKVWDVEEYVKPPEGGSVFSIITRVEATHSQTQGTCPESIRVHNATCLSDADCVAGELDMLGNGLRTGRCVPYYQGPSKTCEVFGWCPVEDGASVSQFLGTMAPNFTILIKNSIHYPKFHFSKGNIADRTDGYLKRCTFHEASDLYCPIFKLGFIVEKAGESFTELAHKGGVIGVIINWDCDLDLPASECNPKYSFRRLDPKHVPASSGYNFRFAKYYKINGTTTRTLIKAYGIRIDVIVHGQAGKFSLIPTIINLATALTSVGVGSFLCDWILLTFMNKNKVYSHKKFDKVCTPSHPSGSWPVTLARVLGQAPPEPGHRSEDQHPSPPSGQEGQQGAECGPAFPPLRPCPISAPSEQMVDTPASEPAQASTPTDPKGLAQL
Briefly: Antagonist activity at human P2X2 receptor at 10 uM. It is filed as functional.

Series [7] has as its target P2Y purinoceptor 1 (Homo sapiens) (UniProt P47900). Kind of series: Activity at human P2Y1 receptor at 10 uM.
Series [8] in a line: Cmax in rat at 5 umol/kg, ip. Format: ADME, organism-based. Set-up: dose 5 umol/kg, route intraperitoneal. The following applies: in vivo.
The nature of series [9]: Half life in ip dosed rat Chung model of neuropathic pain. Format: ADME, organism-based. The following applies: in vivo.
Series [10] addresses Translocator protein (Homo sapiens) (UniProt P30536). Kind of series: Activity at peripheral benzodiazepine receptor at 10 uM.
A short description of series [11]: Bioavailability in ip dosed rat Chung model of neuropathic pain. It is filed as ADME, organism-based. The following applies: in vivo.
Series [12] addresses T4, P2X purinoceptor 4 (Homo sapiens) (UniProt Q99571).
T4 sequence (whole entry): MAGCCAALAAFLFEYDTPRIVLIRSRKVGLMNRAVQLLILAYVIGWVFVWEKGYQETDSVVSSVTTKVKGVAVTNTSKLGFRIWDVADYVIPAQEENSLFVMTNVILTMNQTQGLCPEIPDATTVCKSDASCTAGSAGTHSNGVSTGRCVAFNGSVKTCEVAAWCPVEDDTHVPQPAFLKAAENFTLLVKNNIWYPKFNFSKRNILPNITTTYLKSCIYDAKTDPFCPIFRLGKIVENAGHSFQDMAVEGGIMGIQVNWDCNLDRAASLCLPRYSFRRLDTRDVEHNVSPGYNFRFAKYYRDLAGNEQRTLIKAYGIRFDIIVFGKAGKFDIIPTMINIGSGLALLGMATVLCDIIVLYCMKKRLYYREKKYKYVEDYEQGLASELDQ
Briefly: Activity at human P2X4 receptor at 10 uM.

Series [13] is described as follows: Volume of distribution at terminal phase in rat at 5 umol/kg, iv. The following applies: in vivo. Format: ADME, organism-based.
Series [14] is filed under the species Rattus norvegicus. Briefly: Antinociceptive activity in rat Chung model of neuropathic pain assessed as reversal of allodynia after 30 mins. It is filed as functional.
Series [15] is described as follows: Tmax in rat at 5 umol/kg, ip. Format: ADME, organism-based. The following applies: in vivo.
The target in series [16] is T5, P2X purinoceptor 1 (Homo sapiens) (UniProt P51575).
T5 sequence (whole entry): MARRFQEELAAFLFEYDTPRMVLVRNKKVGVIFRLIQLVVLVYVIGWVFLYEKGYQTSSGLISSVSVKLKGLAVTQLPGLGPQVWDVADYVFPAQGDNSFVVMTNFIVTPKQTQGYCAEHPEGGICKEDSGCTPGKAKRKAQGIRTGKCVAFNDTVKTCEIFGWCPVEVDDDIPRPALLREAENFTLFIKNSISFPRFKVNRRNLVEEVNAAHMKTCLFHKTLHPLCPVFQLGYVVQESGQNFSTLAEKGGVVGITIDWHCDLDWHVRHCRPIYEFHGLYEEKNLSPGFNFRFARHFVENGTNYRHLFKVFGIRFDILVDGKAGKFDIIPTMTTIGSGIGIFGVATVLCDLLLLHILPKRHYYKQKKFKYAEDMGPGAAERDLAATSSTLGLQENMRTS
Briefly: Activity at human P2X1 receptor at 10 uM.

Series [17] addresses P2Y purinoceptor 2 (Homo sapiens) (UniProt P41231). Kind of series: Activity at human P2Y2 receptor at 10 uM.
A short description of series [18]: Clearance in rat at 5 umol/kg, iv. The following applies: in vivo. Format: ADME, organism-based.

Chain of P2Y purinoceptor 1 (Homo sapiens) (P47900 whole entry): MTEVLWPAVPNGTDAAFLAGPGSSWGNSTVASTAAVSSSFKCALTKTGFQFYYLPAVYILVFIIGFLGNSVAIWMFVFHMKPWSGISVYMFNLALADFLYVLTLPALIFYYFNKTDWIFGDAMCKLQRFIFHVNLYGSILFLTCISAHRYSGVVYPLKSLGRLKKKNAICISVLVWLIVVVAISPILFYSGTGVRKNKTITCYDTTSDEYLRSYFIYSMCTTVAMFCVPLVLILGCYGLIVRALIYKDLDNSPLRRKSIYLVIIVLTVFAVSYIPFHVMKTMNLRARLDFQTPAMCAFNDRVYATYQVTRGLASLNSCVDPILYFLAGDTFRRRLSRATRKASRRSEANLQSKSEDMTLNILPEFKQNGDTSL
Chain of Translocator protein (Homo sapiens) (P30536 whole entry): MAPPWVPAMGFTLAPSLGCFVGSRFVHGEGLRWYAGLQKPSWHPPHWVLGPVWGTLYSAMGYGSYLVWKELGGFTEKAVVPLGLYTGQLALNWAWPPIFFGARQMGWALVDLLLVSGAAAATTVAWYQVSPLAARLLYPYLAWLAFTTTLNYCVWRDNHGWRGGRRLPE
Chain of P2Y purinoceptor 2 (Homo sapiens) (P41231 whole entry): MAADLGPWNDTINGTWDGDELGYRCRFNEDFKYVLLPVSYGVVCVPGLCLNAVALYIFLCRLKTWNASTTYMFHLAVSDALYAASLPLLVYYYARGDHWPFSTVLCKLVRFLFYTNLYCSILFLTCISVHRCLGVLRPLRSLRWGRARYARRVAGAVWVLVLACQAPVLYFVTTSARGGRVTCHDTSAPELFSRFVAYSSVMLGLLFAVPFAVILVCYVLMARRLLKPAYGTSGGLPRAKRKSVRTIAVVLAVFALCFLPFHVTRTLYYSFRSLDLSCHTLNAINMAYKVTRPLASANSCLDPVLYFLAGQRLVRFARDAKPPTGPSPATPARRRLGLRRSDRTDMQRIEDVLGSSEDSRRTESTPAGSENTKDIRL

On to `COc1cccc(Cn2cnnc2-c2cccc(Cl)c2Cl)c1`, for which the IC50 in [1] is 214 nM.

As for `Clc1cccc(-c2ccnn2Cc2ccccc2)c1Cl`, the 50% inhibitory concentration (IC50) in series [1] is 6030 nM.

Take `Clc1ccc(Cn2cnnc2-c2cccc(Cl)c2Cl)c(Cl)c1`: in series [1], the IC50 is 331 nM.

On to `Fc1ccc(C(F)(F)F)cc1Cn1cnnc1-c1cccc(Cl)c1Cl`, for which the IC50 in series [1] is 912 nM.

With `Clc1cccc(-c2nncn2Cc2cccc3ccccc23)c1Cl`, the IC50 in [1] was 58.9 nM.

As for `COc1ccccc1Cn1cnnc1-c1cccc(Cl)c1Cl`, the IC50 in [1] was 191 nM.

On to `Clc1cccc(-c2nncn2[C@@H]2CCc3ccccc32)c1Cl`, for which the results for the IC50 in series [1], in series [2] and in series [3] were 19.1 nM, 77.6 nM and 75.9 nM, respectively.

In the case of `FC(F)(F)c1ccccc1Cn1cnnc1-c1cccc(Cl)c1Cl`, in [1], the IC50 is 132 nM.

Consider `Clc1cccc(Cn2cnnc2-c2cccc(Cl)c2Cl)c1Cl`, for which the IC50 in [1] is 191 nM.

On to `FC(F)(F)c1ccc(Cn2cnnc2-c2cccc(Cl)c2Cl)cc1`, for which the half-maximal inhibitory concentration (IC50) in series [1] is 8910 nM.

For `Clc1ccc(Cl)c(Cn2cnnc2-c2cccc(Cl)c2Cl)c1`, in series [1], the 50% inhibitory concentration (IC50) is 138 nM.

Regarding `FC(F)c1ccccc1Cn1cnnc1-c1cccc(Cl)c1Cl`, the half-inhibitory concentration (IC50) in series [1] is 117 nM.

In the case of `Clc1cccc(-c2cnnn2Cc2ccccc2)c1Cl`, in [1], the IC50 was 603 nM.

Take `Cc1ccc(F)cc1Cn1cnnc1-c1cccc(Cl)c1Cl`: the values for the concentration for half-maximal inhibition (IC50) in [1], in series [2] and in series [3] were 47.9 nM, 550 nM and 240 nM, respectively.

Consider `O=C(NCC12CC3CC(CC(C3)C1)C2)c1cccc(Cl)c1Cl`, for which the IC50 in series [1] is 64.6 nM; in series [2] it was 813 nM.

Take `Clc1cccc(-n2ncnc2Cc2ccccc2)c1Cl`: in series [1], the IC50 is 209 nM.

On to `COc1cccc(Cn2cnnc2-c2cccc(Cl)c2Cl)c1OC`, for which, in series [1], the IC50 is 132 nM.

`FC(F)(F)c1cccc(Cn2cnnc2-c2cccc(Cl)c2Cl)c1`: the IC50 in series [1] is 1290 nM.

`Cc1ccccc1Cn1cnnc1-c1cccc(Cl)c1Cl`: the outcome in [4], in [6], in series [7], in series [12], in series [16] and in series [17] was inactive. Also, the bioavailability was 15% in series [5] and 62% in series [11]. The compound also came in with a Cmax in series [8] of 210 ng/mL. The compound also showed a half-life in series [9] of 1.7 h. In addition, the Activity in series [10] was 86%. The IC50 in [1] was 77.6 nM; in [2] it was 209 nM; in [3] it was 372 nM. For the same compound, in series [13], the Vd was found to be 1.9 L/kg. Besides, the Efficacy in series [14] turned out to be 68%. Also, the ED50 in [14] (Rattus norvegicus, 0.5 h) is 125 µmol/kg. Also, the Tmax in [15] stood at 0.33 h. This compound also gave a clearance in [18] of 51.7 mL/min/kg.

For `Clc1cccc(-c2nncn2[C@H]2CCc3ccccc32)c1Cl`, in series [1], the IC50 is 50.1 nM.

Consider `CC(c1ccccc1)n1cnnc1-c1cccc(Cl)c1Cl` (stereo not given), for which, in series [1], the IC50 is 1050 nM.

For `CSc1ccccc1Cn1cnnc1-c1cccc(C(F)(F)F)c1Cl`, in series [1], the IC50 is 26.9 nM.

With `Clc1cccc(-c2nnnn2Cc2ccccc2)c1Cl`, the values for the IC50 in [2] and in [3] were 75.9 nM and 2510 nM, respectively.

Turning to `Clc1cccc(-c2ncnn2Cc2ccccc2)c1Cl`, the IC50 in series [1] was 302 nM.

Turning to `CSc1ccccc1Cn1cnnc1-c1cccc(Cl)c1Cl`, the IC50 in [1] was 49 nM.

On to `CC(C)(c1ccccc1)n1cnnc1-c1cccc(Cl)c1Cl`, for which, in series [1], the IC50 is 13200 nM.

With `CS(=O)(=O)c1ccccc1Cn1cnnc1-c1cccc(C(F)(F)F)c1Cl`, the IC50 in series [1] was 145 nM.

Regarding `Clc1cccc(-n2nncc2Cc2ccccc2)c1Cl`, the IC50 in series [1] was 427 nM.

Consider `Clc1cccc(-c2cncn2Cc2ccccc2)c1Cl`, for which, in series [1], the IC50 is 1820 nM.

For the compound `Clc1cccc(-c2nncn2Cc2ccccc2)c1Cl`, the concentration for half-maximal inhibition (IC50) in [1] is 525 nM.

Turning to `Fc1ccc(C(F)(F)F)c(Cn2cnnc2-c2cccc(Cl)c2Cl)c1`, the IC50 in [1] was 49 nM.

By IC50 is commonly meant the concentration at which inhibition is half-maximal. Broadly, the bioavailability is dose-corrected exposure relative to a reference, in per cent. Low readings indicate poor availability, high ones good availability. The term Cmax denotes the highest concentration seen after dosing. The half-life is the time in which the quantity being followed falls by half. Higher therefore signals slow decline. One may read the Vd as the apparent volume that relates the amount in the body to the concentration in plasma or blood. A lower Vd goes with confinement near the circulation. A word on the ED50: it is the midpoint of the dose-response relation. One may read the Tmax as the time from dosing to the highest level. As a reminder, the clearance is the volume of plasma or blood freed of the substance per unit of time.
